Laboratory results reported in ChEMBL document CHEMBL1158928, “Antitumor agents, 118. The isolation and characterization of bruceanic acid A, its methyl ester, and the new bruceanic acids B, C, and D, from Brucea antidysenterica” (1990).
Converted amounts (≈) assume the structure as drawn. The source made the active and inactive calls. The rule behind the calls is not given here.

Tests used:
KB [1] = test: Cytotoxicity against human KB cells at 10 ug/ml; type: functional, cell-based
P388 [2] = test: Cytotoxicity against mouse P388 cells at 10 ug/ml; type: functional, cell-based
TE-671 [3] = test: Cytotoxicity against human TE671 cells at 10 ug/ml; type: functional, cell-based
A549 [4] = test: Cytotoxicity against human A549 cells at 10 ug/ml; type: functional, cell-based
HCT-8 [5] = test: Cytotoxicity against human HCT8 cells at 10 ug/ml; type: functional, cell-based
A549 [6] = test: Cytotoxicity against human A549 cells; type: functional; conditions: read-out: ED50 (the source's name)
P388 [7] = test: Cytotoxicity against mouse P388 cells; type: functional; conditions: read-out: ED50 (the source's name)
HCT-8 [8] = test: Cytotoxicity against human HCT8 cells; type: functional; conditions: read-out: ED50 (the source's name)
TE-671 [9] = test: Cytotoxicity against human TE671 cells; type: functional; conditions: read-out: ED50 (the source's name)
KB [10] = test: Cytotoxicity against human KB cells; type: functional; conditions: read-out: ED50 (the source's name)

| SMILES | Activity (KB [1]) | Activity (P388 [2]) | Activity (TE-671 [3]) | Activity (A549 [4]) | Activity (HCT-8 [5]) | EC50 (A549 [6]) [µg/mL] | EC50 (P388 [7]) [µg/mL] | EC50 (HCT-8 [8]) [µg/mL] | EC50 (TE-671 [9]) [µg/mL] | EC50 (KB [10]) [µg/mL] |
| --- | --- | --- | --- | --- | --- | --- | --- | --- | --- | --- |
| COC(=O)[C@@]12OC[C@]34[C@H](CC(=O)[C@H](OC(=O)/C=C(\C)C(C)(C)OC(C)=O)[C@@H]13)C[C@@H](C(C)=O)[C@](C)(CC(=O)O)[C@H]4[C@@H](O)[C@@H]2O | inactive | inactive | inactive | inactive | inactive |  |  |  |  |  |
| COC(=O)[C@@]12OC[C@]34[C@H](CC(=O)[C@H](OC(=O)/C=C(\C)C(C)(C)O)[C@@H]13)C[C@@H](C(C)=O)[C@](C)(CC(=O)O)[C@H]4[C@@H](O)[C@@H]2O [BRUCEANIC ACID D] |  |  |  |  |  | 10 (≈ 17.6 µM) | 0.77 (≈ 1.36 µM) | 10 (≈ 17.6 µM) |  |  |
| COC(=O)[C@@]12OC[C@]34[C@H](CC(=O)[C@H](OC(=O)/C=C(\C)C(C)C)[C@@H]13)C[C@@H](C(C)=O)[C@](C)(CC(=O)O)[C@H]4[C@@H](O)[C@@H]2O [BRUCEANIC ACID A] |  |  |  |  |  | 10 (≈ 18.2 µM) |  | 10 (≈ 18.2 µM) | 5.5 (≈ 9.99 µM) | 4.16 (≈ 7.56 µM) |
| COC(=O)C[C@]1(C)[C@H]2[C@@H](O)[C@H](O)[C@]3(C(=O)OC)OC[C@@]24[C@H](CC(=O)[C@H](OC(=O)/C=C(\C)C(C)C)[C@@H]34)C[C@H]1C(C)=O | inactive | inactive | inactive | inactive | inactive |  |  |  |  |  |
| COC(=O)[C@@]12OC[C@]34[C@H](CC(=O)[C@H](OC(=O)c5ccccc5)[C@@H]13)C[C@@H](C(C)=O)[C@](C)(CC(=O)O)[C@H]4[C@@H](O)[C@@H]2O | inactive | inactive | inactive | inactive | inactive |  |  |  |  |  |
